Consider 42 compounds from BindingDB's records for doi:10.1021/jm970459c (Cambridge Neuroscience, 1998).

Molecules are shown by their SMILES. Where a name gives a salt, the structure may show the parent alone.

This assay has as its target Sigma receptor (Cavia porcellus). In words: Binding assay for the sigma receptor sites is performed by utilizing [3H]N,N-di-o-tolylguanidine ([3H]DTG) and guinea pig brain membrane suspensions.
Broadly, the IC50 is the concentration that gives 50% inhibition. A low value points to greater potency in that assay. With `CCc1cccc(N(C)C(N)=Nc2cc(Cl)ccc2Cl)c1` [N'-(2,5-Dichloro-phenyl)-N-(3-ethyl-phenyl)-N-methyl-guanidine; hydrochloride], the 50% inhibitory concentration (IC50) is 29 nM.

In turn, `CCc1cccc(N(C)C(N)=Nc2cccc(Br)c2)c1` [N'-(3-Bromo-phenyl)-N-(3-ethyl-phenyl)-N-methyl-guanidine; hydrochloride] returned a 50% inhibitory concentration (IC50) of 40 nM.

In turn, `CCc1cccc(N(C)C(N)=Nc2cc(CC)cc(CC)c2F)c1` [N'-(3,5-Diethyl-2-fluoro-phenyl)-N-(3-ethyl-phenyl)-N-methyl-guanidine; hydrochloride] returned a concentration for half-maximal inhibition (IC50) of 113 nM.

As for `CCc1cccc(N(C)C(N)=Nc2cc(Cl)cc(SC)c2Cl)c1` [N'-(2,5-Dichloro-3-methylsulfanyl-phenyl)-N-(3-ethyl-phenyl)-N-methyl-guanidine; hydrochloride], the half-inhibitory concentration (IC50) was determined as 130 nM. This IC50 and that of the compound before are within 1.5-fold of each other.

Take `CCc1cccc(N(C)C(N)=Nc2ccc(Cl)cc2)c1` [N'-(4-Chloro-phenyl)-N-(3-ethyl-phenyl)-N-methyl-guanidine; hydrochloride]: the IC50 came to 46 nM.

For `CCc1cccc(N(C)C(N)=Nc2cc(CC)cc(C(F)(F)F)c2Br)c1` [N'-(2-Bromo-5-ethyl-3-trifluoromethyl-phenyl)-N-(3-ethyl-phenyl)-N-methyl-guanidine; hydrochloride], the concentration for half-maximal inhibition (IC50) turned out to be 221 nM.

`CCc1cccc(NC(N)=Nc2ccc(Cl)c(Cl)c2)c1` [N-(3,4-Dichloro-phenyl)-N'-(3-ethyl-phenyl)-guanidine; hydrochloride] yielded an IC50 of 32 nM.

Compound `CCc1cccc(NC(N)=Nc2cc(Cl)cc(Cl)c2)c1` [N-(3,5-Dichloro-phenyl)-N'-(3-ethyl-phenyl)-guanidine; hydrochloride] had an IC50 of 70 nM.

The compound `CCc1cccc(NC(N)=Nc2cc(Cl)ccc2Cl)c1` [N-(2,5-Dichloro-phenyl)-N'-(3-ethyl-phenyl)-guanidine; hydrochloride] came in with a half-maximal inhibitory concentration (IC50) of 12 nM.

Take `CCc1cccc(N(C)C(N)=Nc2cc(C)cc(CC)c2Cl)c1` [N'-(2-Chloro-3-ethyl-5-methyl-phenyl)-N-(3-ethyl-phenyl)-N-methyl-guanidine; hydrochloride]: the IC50 is 45 nM.

`CCc1cccc(NC(N)=Nc2ccccc2CC)c1` [N-(2-Ethyl-phenyl)-N'-(3-ethyl-phenyl)-guanidine; hydrochloride] showed an IC50 of 19 nM. This IC50 is about 2.4-fold lower than that of the compound before.

`CCc1cccc(N(C)C(N)=Nc2cccc(Cl)c2Cl)c1` [N'-(2,3-Dichloro-phenyl)-N-(3-ethyl-phenyl)-N-methyl-guanidine; hydrochloride]: the IC50 was 97 nM. Compared with the last compound, the IC50 is about 5.1-fold higher.

For the compound `CCc1cccc(NC(N)=Nc2ccccc2C)c1` [N-(3-Ethyl-phenyl)-N'-o-tolyl-guanidine; hydrochloride], the IC50 amounted to 11 nM. Compared with the last compound, the IC50 is about 8.8-fold lower.

With `CCc1cccc(N(C)C(N)=Nc2cccc(SC)c2)c1` [N-(3-Ethyl-phenyl)-N-methyl-N'-(3-methylsulfanyl-phenyl)-guanidine; hydrochloride], the 50% inhibitory concentration (IC50) amounted to 164 nM.

Compound `CCc1cccc(N(C)C(N)=Nc2ccccc2C(C)C)c1` [N-(3-Ethyl-phenyl)-N'-(2-isopropyl-phenyl)-N-methyl-guanidine; hydrochloride] returned a 50% inhibitory concentration (IC50) of 362 nM.

The compound `CCc1cccc(NC(N)=Nc2ccccc2C(C)C)c1` [N-(3-Ethyl-phenyl)-N'-(2-isopropyl-phenyl)-guanidine; hydrochloride] showed an IC50 of 21 nM.

In turn, `CCc1cccc(NC(N)=Nc2cccc(Cl)c2)c1` [N-(3-Chloro-phenyl)-N'-(3-ethyl-phenyl)-guanidine; hydrochloride] gave a half-inhibitory concentration (IC50) of 27 nM.

Compound `CCc1cccc(N(C)C(N)=Nc2ccccc2Cl)c1` [N'-(2-Chloro-phenyl)-N-(3-ethyl-phenyl)-N-methyl-guanidine; hydrochloride] returned an IC50 of 72 nM.

With `CCc1cc(CC)cc(N=C(N)Nc2cccc(CC)c2)c1` [N-(3,5-Diethyl-phenyl)-N'-(3-ethyl-phenyl)-guanidine; hydrochloride], the half-maximal inhibitory concentration (IC50) was found to be 8 nM.

For the compound `CCc1cccc(N(C)C(N)=Nc2cc(SC)cc(CC)c2Br)c1`, the IC50 is 299 nM.

On to `CCc1cccc(N(C)C(=N)N(C)c2cc(Br)ccc2Br)c1` [N-(2,5-Dibromo-phenyl)-N'-(3-ethyl-phenyl)-N,N'-dimethyl-guanidine; hydrochloride], for which the concentration for half-maximal inhibition (IC50) was 381 nM.

`CCc1cccc(N(C)C(N)=Nc2ccc(Cl)c(Cl)c2)c1` [N'-(3,4-Dichloro-phenyl)-N-(3-ethyl-phenyl)-N-methyl-guanidine; hydrochloride] returned an IC50 of 39 nM.

`CCc1cccc(N(C)C(N)=Nc2cc(C(F)(F)F)cc(CC)c2Cl)c1` [N'-(2-Chloro-3-ethyl-5-trifluoromethyl-phenyl)-N-(3-ethyl-phenyl)-N-methyl-guanidine; hydrochloride] returned an IC50 of 115 nM.

In turn, `CCc1cccc(N(C)C(N)=Nc2cc(Br)cc(CC)c2Br)c1` [N'-(2,5-Dibromo-3-ethyl-phenyl)-N-(3-ethyl-phenyl)-N-methyl-guanidine; hydrochloride] had an IC50 of 40 nM.

Compound `CCc1cccc(N(C)C(N)=Nc2cc(C(F)(F)F)cc(CC)c2Br)c1` [N'-(2-Bromo-3-ethyl-5-trifluoromethyl-phenyl)-N-(3-ethyl-phenyl)-N-methyl-guanidine; hydrochloride] yielded a half-inhibitory concentration (IC50) of 205 nM.

`CCc1cccc(N(C)C(N)=Nc2cc(Br)cc(S(C)(=O)=O)c2Br)c1` [N'-(2,5-Dibromo-3-methanesulfonyl-phenyl)-N-(3-ethyl-phenyl)-N-methyl-guanidine; hydrochloride] displayed an IC50 of 3380 nM.

On to `CCc1cccc(N(C)C(N)=Nc2cc(CC)cc(CC)c2Br)c1` [N'-(2-Bromo-3,5-diethyl-phenyl)-N-(3-ethyl-phenyl)-N-methyl-guanidine; hydrochloride], for which the IC50 came to 203 nM.

`CCc1cccc(N(C)C(N)=Nc2cc(CC)cc(CC)c2Cl)c1` [N'-(2-Chloro-3,5-diethyl-phenyl)-N-(3-ethyl-phenyl)-N-methyl-guanidine; hydrochloride] yielded a half-inhibitory concentration (IC50) of 112 nM.

Turning to `CCc1cccc(N(C)C(N)=Nc2cc(CC)cc(SC)c2Br)c1` [N'-(2-Bromo-5-ethyl-3-methylsulfanyl-phenyl)-N-(3-ethyl-phenyl)-N-methyl-guanidine; hydrochloride], the IC50 came out at 180 nM.

In turn, `CCc1cccc(N(C)C(N)=Nc2cc(CC)cc(C(F)(F)F)c2Cl)c1` [N'-(2-Chloro-5-ethyl-3-trifluoromethyl-phenyl)-N-(3-ethyl-phenyl)-N-methyl-guanidine; hydrochloride] showed a half-maximal inhibitory concentration (IC50) of 200 nM.

Compound `CCc1cccc(N(C)C(N)=Nc2ccccc2Br)c1` [N'-(2-Bromo-phenyl)-N-(3-ethyl-phenyl)-N-methyl-guanidine; hydrochloride] displayed an IC50 of 125 nM.

Consider `CCc1cccc(N(C)C(N)=Nc2cc(Br)cc(C(F)(F)F)c2Br)c1` [N'-(2,5-Dibromo-3-trifluoromethyl-phenyl)-N-(3-ethyl-phenyl)-N-methyl-guanidine; hydrochloride], for which the 50% inhibitory concentration (IC50) turned out to be 224 nM.

Compound `CCc1cccc(N(C)C(N)=Nc2cc(Br)cc([S+](C)[O-])c2Br)c1` (configuration not stated) yielded a half-maximal inhibitory concentration (IC50) of 1950 nM.

As for `CCc1cccc(N(C)C(N)=Nc2cccc(Cl)c2)c1` [N'-(3-Chloro-phenyl)-N-(3-ethyl-phenyl)-N-methyl-guanidine; hydrochloride], the half-inhibitory concentration (IC50) turned out to be 44 nM.

In turn, `CCc1cccc(N(C)C(N)=Nc2cc(CC)cc(OC(F)(F)F)c2Br)c1` [N'-(2-Bromo-5-ethyl-3-trifluoromethoxy-phenyl)-N-(3-ethyl-phenyl)-N-methyl-guanidine; hydrochloride] displayed a half-maximal inhibitory concentration (IC50) of 261 nM.

In turn, `CCc1cccc(N(C)C(N)=Nc2cc(CC)cc(SC)c2Cl)c1` [N'-(2-Chloro-5-ethyl-3-methylsulfanyl-phenyl)-N-(3-ethyl-phenyl)-N-methyl-guanidine; hydrochloride] came in with an IC50 of 178 nM.

In turn, `CCc1cccc(NC(N)=Nc2cccc(Cl)c2Cl)c1` [N-(2,3-Dichloro-phenyl)-N'-(3-ethyl-phenyl)-guanidine; hydrochloride] returned an IC50 of 13 nM.

In turn, `CCc1cccc(NC(N)=Nc2cccc(Br)c2)c1` [N-(3-Bromo-phenyl)-N'-(3-ethyl-phenyl)-guanidine; hydrochloride] registered a concentration for half-maximal inhibition (IC50) of 10 nM.

With `CCc1cccc(NC(N)=Nc2c(Cl)cccc2Cl)c1` [N-(2,6-Dichloro-phenyl)-N'-(3-ethyl-phenyl)-guanidine; hydrochloride], the concentration for half-maximal inhibition (IC50) is 14 nM.

Take `CCc1cccc(N(C)C(N)=Nc2cc(Cl)cc(C(F)(F)F)c2Cl)c1` [N'-(2,5-Dichloro-3-trifluoromethyl-phenyl)-N-(3-ethyl-phenyl)-N-methyl-guanidine; hydrochloride]: the 50% inhibitory concentration (IC50) came to 110 nM.

For the compound `CCc1cccc(N(C)C(N)=Nc2cc(Br)cc(OC(F)(F)F)c2Br)c1` [N'-(2,5-Dibromo-3-trifluoromethoxy-phenyl)-N-(3-ethyl-phenyl)-N-methyl-guanidine; hydrochloride], the IC50 was 113 nM.

With `CCc1cccc(NC(N)=Nc2ccc(Cl)cc2Cl)c1` [N-(2,4-Dichloro-phenyl)-N'-(3-ethyl-phenyl)-guanidine; hydrochloride], the IC50 was found to be 37 nM.
